Laboratory results: article PMC12921483 (Frontiers in Pharmacology, 2026)
Where two headings read alike, the source gives them in different places.

Assays:
Format in all cases: cell-based
H8 = test: CCK-8 cytotoxicity, normal cervical epithelial cells H8; details: for IC50: read-out: IC50 H8; for toxicity to H8 cells in words: normal cervical epithelial cells
Experimental: (§1) Cells were seeded into 96-well plates at a density of 2.5–6 × 10^3 cells per well and incubated for 24 h. They were then treated with a series of eight concentrations of the test compounds (e.g., from 100 to 0.78125 μM or from 2 to 0.015625 μM, prepared by twofold serial dilution) for 48 h. After treatment, the medium was removed and replaced with 100 μL of 10% CCK-8 solution (diluted in fresh medium). Following incubation in the dark for 1–2 h, absorbance at 450 nm was measured using a microplate reader. The half-maximal inhibitory concentration (IC50) was calculated using SPSS software. Each concentration was tested in six replicate wells, and the entire experiment was performed in three independent biological replicates.
(§2) IC50 values were derived by nonlinear regression (SPSS 26). All data are presented as mean ± SD from at least three independent biological replicates (n ≥ 3). Differences were assessed by Student’s t-test (two groups) or one-way ANOVA with Tukey’s post hoc test (multiple groups). […] Statistical significance was set at p < 0.05.

SiHa = test: CCK-8 antiproliferative assay, SiHa; details: read-out: IC50 SiHa
Experimental: as §1, §2

HeLa = test: CCK-8 antiproliferative assay, HeLa
Experimental: as §1, §2

C-33A = test: CCK-8 antiproliferative assay, C-33A; details: read-out: IC50 C-33A
Experimental: as §1, §2

HeLa cells [1] = test: GSH assay kit; details: Fer-1 5 μmol/L cotreated with 0.22 μmol/L B1, HeLa
Experimental: Intracellular GSH levels were measured using a GSH assay kit.
(§3) After 24 h of treatment, cells were collected and washed twice with PBS for subsequent analysis. […] Subsequent procedures were performed strictly according to the manufacturer’s instructions of the respective kits: MDA assay kit (Servicebio, Cat# GM1134), Fe^2+ colorimetric assay kit (Servicebio, Cat# GM3052), and reduced GSH assay kit (Servicebio, Cat# GM1139).

SLC7A11 = test: Western blot, SLC7A11 expression in HeLa cells; details: Fer-1 5 μmol/L cotreated with B1, HeLa
HeLa cells [2] = test: MDA assay kit; details: Fer-1 5 μmol/L cotreated with 0.22 μmol/L B1, HeLa
Experimental: MDA levels in HeLa cells were detected using an MDA assay kit ([Tsikas et al., 2017]).
After 24 h of treatment, cells were collected and washed twice with PBS for subsequent analysis.

HeLa cells [3] = test: Fe2+ assay kit; details: Fer-1 5 μmol/L cotreated with 0.22 μmol/L B1, HeLa
Experimental: Intracellular ferrous iron (Fe^2+) levels in HeLa cells were measured using an Fe^2+ assay kit.
as §3

GPX4 = test: Western blot, GPX4 expression in HeLa cells; details: Fer-1 5 μmol/L cotreated with B1, HeLa
[4] = Epithelial cell, CCK-8, 48 h, normal cells, Table 1
[5] = Homo sapiens, SiHa, CCK-8, 48 h, Table 1
[6] = Homo sapiens, HeLa, CCK-8, 48 h, Table 1, read-out: IC50 HeLa
[7] = Homo sapiens, C-33-A, CCK-8, 48 h, Table 1
[8] = CCK-8, 48 h, normal cells, Table 1
[9] = CCK-8, 48 h, Table 1, read-out: IC50 HeLa
[10] = Homo sapiens, HeLa, 48 h, read-out: IC50 HeLa

| Compound | IC50 (H8; Epithelial cell, 48 h) [µM] | IC50 (SiHa; Homo sapiens, SiHa, 48 h) [µM] | IC50 (HeLa; [10]) [µM] | IC50 (C-33A; Homo sapiens, C-33-A, 48 h) [µM] | also measured |
| --- | --- | --- | --- | --- | --- |
| O=C(/C=C/c1ccccc1)c1ccccc1 [Chalcone, reference compound] |  |  |  |  | IC50 (H8; [4]): 38.6 ± 1.64 µM; IC50 (SiHa; [5]): 69.7 ± 1.67 µM; IC50 (HeLa; [6]): 63.9 ± 2.85 µM; IC50 (C-33A; [7]): 58.7 ± 1.05 µM |
| N.N.[Cl][Pt][Cl] [Cisplatin, reference compound] |  |  |  |  | IC50 (H8; [8]): 25.6 ± 1.32 µM; IC50 (SiHa; CCK-8, 48 h, Table 1): 37 ± 1.54 µM; IC50 (HeLa; [9]): 18.23 ± 0.11 µM; IC50 (C-33A; CCK-8, 48 h, Table 1): 12.7 ± 1.09 µM |
| COc1ccccc1C(=O)/C=C/c1ccc(N2CCCC2)cc1 [Compound A1] | 61.3 ± 1.34 | 2.93 ± 0.21 | 3.04 ± 0.03 | 4.79 ± 0.19 | toxicity to H8 cells in words (H8): low toxicity |
| COc1ccc(C(=O)/C=C/c2ccc(N3CCCC3)cc2)c(OC)c1 [Compound A2] | 74 ± 1.05 | 18.3 ± 0.73 | 16.7 ± 0.65 | 17.9 ± 0.55 |  |
| COc1cccc(OC)c1C(=O)/C=C/c1ccc(N2CCCC2)cc1 [Compound A3] | > 100 | 64.44 ± 0.57 | 31.5 ± 1.46 | > 100 |  |
| COc1ccc(C(=O)/C=C/c2ccc(N3CCCC3)cc2)c(OC)c1OC [Compound A4] | 81 ± 1.03 | 7.78 ± 0.24 | 15.7 ± 0.38 | 21.3 ± 1.02 |  |
| O=C(/C=C/c1ccc(N2CCCC2)cc1)c1ccccc1C(F)(F)F [Compound A5] | 78.7 ± 1.41 | 38 ± 0.74 | 13.6 ± 0.26 | 36.69 ± 0.22 |  |
| O=C(/C=C/c1ccc(N2CCCC2)cc1)c1cccc(C(F)(F)F)c1 [Compound A6] | 86.4 ± 3.17 | 34.5 ± 0.59 | 31.8 ± 1.45 | 35.1 ± 0.37 | IC50 (HeLa; Homo sapiens, HeLa): > 100 µM |
| Cc1cccc(C(=O)/C=C/c2ccc(N3CCCC3)cc2)c1 [Compound A7] | 91.6 ± 3.28 | 16.41 ± 0.13 | 27.6 ± 2.23 | 37.2 ± 0.19 |  |
| O=C(/C=C/c1ccc(N2CCCC2)cc1)c1ccc(C(F)(F)F)cc1 [Compound A8] | > 100 | > 100 | > 100 | > 100 |  |
| O=C(/C=C/c1ccc(N2CCCC2)cc1)c1ccc(Cl)c(Cl)c1Cl [Compound A9] |  |  |  |  | IC50 (H8; [4]): > 100 µM; IC50 (SiHa; [5]): 90.5 ± 3.38 µM; IC50 (HeLa; [6]): > 100 µM; IC50 (C-33A; [7]): > 100 µM |
| COc1ccc(F)cc1C(=O)/C=C/c1ccc(N2CCCC2)cc1 [Compound B1] | 45.8 ± 1.61 | 0.24 ± 0.03 | 0.22 ± 0.01 | 0.95 ± 0.02 | toxicity to H8 cells in words (H8): low toxicity; IC50 (SiHa; Homo sapiens, SiHa): ~0.24 µM; IC50 (HeLa; Homo sapiens, HeLa, read-out: IC50 HeLa): ~0.22 µM |
| COc1ccc(Br)cc1C(=O)/C=C/c1ccc(N2CCCC2)cc1 [Compound B2] | 56.8 ± 0.75 | 1.35 ± 0.13 | 1.09 ± 0.05 | 4.4 ± 0.11 |  |
| COc1ccc(Cl)cc1C(=O)/C=C/c1ccc(N2CCCC2)cc1 [Compound B3] | 57 ± 2.47 | 2.17 ± 0.02 | 1.59 ± 0.08 | 4.29 ± 0.15 |  |
| COc1ccccc1C(=O)/C(C)=C/c1ccc(N2CCCC2)cc1 [Compound B4] |  |  |  |  | IC50 (H8; [4]): > 100 µM; IC50 (SiHa; [5]): 44.7 ± 0.78 µM; IC50 (HeLa; [6]): 84.8 ± 2.69 µM; IC50 (C-33A; [7]): > 100 µM |
| O=C(/C=C/c1ccc(N2CCCC2)cc1)c1ccccc1OC(F)(F)F [Compound B5] | 76.9 ± 3.87 | 0.91 ± 0.03 | 0.9 ± 0.02 | 5.93 ± 0.07 |  |
| O=C(/C=C/c1ccc(N2CCCC2)cc1)c1cccc(OC(F)(F)F)c1 [Compound B6] | > 100 | 49.5 ± 1.4 | > 100 | > 100 |  |
| O=C(/C=C/c1ccc(N2CCCC2)cc1)c1ccc(OC(F)(F)F)cc1 [Compound B7] | > 100 | > 100 | > 100 | > 100 |  |
| COc1ccc(OC)c(C(=O)/C=C/c2ccc(N3CCCC3)cc2)c1 [Compound C1] | 27.2 ± 2.33 | 9.92 ± 0.67 | 9.3 ± 0.57 | 13.8 ± 0.45 | IC50 (HeLa; Homo sapiens, HeLa): 27.1 µM |
| O=C(/C=C/c1ccc(N2CCCC2)cc1)c1cc(F)ccc1F [Compound C2] | 35.1 ± 0.95 | 26.4 ± 1.11 | 27.1 ± 0.59 | 44.1 ± 1.99 | IC50 (HeLa; Homo sapiens, HeLa): 9.3 µM |
| COc1ccc(F)cc1/C=C/C(=O)c1ccc(N2CCCC2)cc1 [Compound D1] | 19.2 ± 1.08 | 5.44 ± 0.23 | 5.25 ± 0.1 | 20.9 ± 1.03 |  |
| COc1ccc(Br)cc1/C=C/C(=O)c1ccc(N2CCCC2)cc1 [Compound D2] | 40 ± 0.55 | 11.55 ± 0.06 | 10.8 ± 0.37 | 49.8 ± 2.93 |  |
| COc1ccc(Cl)cc1/C=C/C(=O)c1ccc(N2CCCC2)cc1 [Compound D3] | 22.6 ± 0.32 | 10.9 ± 0.38 | 8.17 ± 0.46 | 34.2 ± 1.3 |  |
| O=C(/C=C/c1ccccc1OC(F)(F)F)c1ccc(N2CCCC2)cc1 [Compound D4] | > 100 | 9.28 ± 0.33 | 4.09 ± 0.24 | 33 ± 2.38 |  |
| O=C(/C=C/c1cccc(OC(F)(F)F)c1)c1ccc(N2CCCC2)cc1 [Compound D5] | > 100 | 44.4 ± 1.64 | 32 ± 1.28 | > 100 |  |
| O=C(/C=C/c1ccc(OC(F)(F)F)cc1)c1ccc(N2CCCC2)cc1 [Compound D6] | > 100 | 77.3 ± 2.13 | > 100 | > 100 |  |
| CCOc1ccccc1-n1c(C(C)N2CCN(C(=O)COc3ccc(Cl)cc3)CC2)nc2ccccc2c1=O (stereo not shown) [Erastin, reference compound] |  |  |  |  | IC50 (HeLa; Homo sapiens, HeLa, CCK-8, Table 3, ferroptosis inducer/inhibitor comparison, read-out: IC50 HeLa): 17.2 ± 0.53 µM |
| CCOC(=O)c1ccc(NC2CCCCC2)c(N)c1 [Ferrostatin-1, ferrostatin-1] |  |  |  |  | intracellular GSH levels on cotreatment (HeLa cells [1]): increased; SLC7A11 protein expression level on cotreatment (SLC7A11): increased; MDA levels on cotreatment (HeLa cells [2]): reduced; Fe^2+ levels on cotreatment (HeLa cells [3]): reduced; GPX4 protein expression level on cotreatment (GPX4): increased |
| COc1ccc(C2=N[C@@H](c3ccc(Cl)cc3)[C@@H](c3ccc(Cl)cc3)N2C(=O)N2CCNC(=O)C2)c(OC(C)C)c1 [Nutlin-3a, reference compound] |  |  |  |  | IC50 (H8; [8]): 45.5 ± 2.11 µM; IC50 (SiHa; CCK-8, 48 h, Table 1): 56.6 ± 2.2 µM; IC50 (HeLa; [9]): 61.3 ± 1.42 µM; IC50 (C-33A; CCK-8, 48 h, Table 1): 57 ± 2.81 µM |
